Assay: xn = mol fraction of the nth substance listed
Conditions: Pycnometric method

CC1COC(=O)O1 (configuration not stated) [4-methyl-1,3-dioxolan-2-one] + O=C=O
Conditions	mass density [kg/m3]
313 K, 2000 kPa, Gas, x2 = 0.9953	47.6
313 K, 2000 kPa, Liquid, x2 = 0.2593	1170
313 K, 3000 kPa, Gas, x2 = 0.9895	73
313 K, 3000 kPa, Liquid, x2 = 0.3384	1170
313 K, 4000 kPa, Gas, x2 = 0.9864	97.2
313 K, 4000 kPa, Liquid, x2 = 0.4022	1160
313 K, 5000 kPa, Gas, x2 = 0.9894	136.8
313 K, 5000 kPa, Liquid, x2 = 0.4548	1164.8
313 K, 6000 kPa, Gas, x2 = 0.9963	170.5
313 K, 6000 kPa, Liquid, x2 = 0.4919	1156
313 K, 7000 kPa, Gas, x2 = 0.99	224.7
313 K, 7000 kPa, Liquid, x2 = 0.542	1141.4
313 K, 8000 kPa, Gas, x2 = 0.99	244
313 K, 8000 kPa, Liquid, x2 = 0.5706	1129.7
313 K, 9000 kPa, Gas, x2 = 0.9907	276.7
313 K, 9000 kPa, Liquid, x2 = 0.6169	1109.2
313 K, 10000 kPa, Gas, x2 = 0.9841	339.9
313 K, 10000 kPa, Liquid, x2 = 0.6579	1089.3
313 K, 11000 kPa, Gas, x2 = 0.9866	366.2
313 K, 11000 kPa, Liquid, x2 = 0.6915	1073
313 K, 12000 kPa, Gas, x2 = 0.9694	390.8
313 K, 12000 kPa, Liquid, x2 = 0.7279	1046.6
333 K, 3000 kPa, Gas, x2 = 0.9942	52
333 K, 3000 kPa, Liquid, x2 = 0.2425	1090.7
333 K, 4000 kPa, Gas, x2 = 0.9968	77.8
333 K, 4000 kPa, Liquid, x2 = 0.2787	1096.7
333 K, 5000 kPa, Gas, x2 = 0.9922	100.2
333 K, 5000 kPa, Liquid, x2 = 0.3272	1106.7
333 K, 6000 kPa, Gas, x2 = 0.9862	116.8
333 K, 6000 kPa, Liquid, x2 = 0.3723	1105.7
333 K, 7000 kPa, Gas, x2 = 0.9885	147.9
333 K, 7000 kPa, Liquid, x2 = 0.4079	1109.2
333 K, 8000 kPa, Gas, x2 = 0.9898	174.5
333 K, 8000 kPa, Liquid, x2 = 0.4512	1110.2
333 K, 9000 kPa, Gas, x2 = 0.984	199.6
333 K, 9000 kPa, Liquid, x2 = 0.4846	1102.2
333 K, 10000 kPa, Gas, x2 = 0.9855	230.2
333 K, 10000 kPa, Liquid, x2 = 0.5244	1091.2
333 K, 11000 kPa, Gas, x2 = 0.9812	271.3
333 K, 11000 kPa, Liquid, x2 = 0.5725	1077.1
333 K, 12000 kPa, Gas, x2 = 0.9888	326.5
333 K, 12000 kPa, Liquid, x2 = 0.6065	1061.1
333 K, 13000 kPa, Gas, x2 = 0.9883	411.2
333 K, 13000 kPa, Liquid, x2 = 0.6246	1052.5
353 K, 1000 kPa, Gas, x2 = 0.952	18.6
353 K, 1000 kPa, Liquid, x2 = 0.081	1011
353 K, 2000 kPa, Gas, x2 = 0.9663	32.2
353 K, 2000 kPa, Liquid, x2 = 0.115	1024.5
353 K, 3000 kPa, Gas, x2 = 0.9679	50.9
353 K, 3000 kPa, Liquid, x2 = 0.1518	1030
353 K, 4000 kPa, Gas, x2 = 0.9679	68.5
353 K, 4000 kPa, Liquid, x2 = 0.196	1040.8
353 K, 5000 kPa, Gas, x2 = 0.9591	84.4
353 K, 5000 kPa, Liquid, x2 = 0.2317	1044.3
353 K, 6000 kPa, Gas, x2 = 0.9866	100
353 K, 6000 kPa, Liquid, x2 = 0.2852	1054.8
353 K, 7000 kPa, Gas, x2 = 0.9836	115
353 K, 7000 kPa, Liquid, x2 = 0.3205	1062.4
353 K, 8000 kPa, Gas, x2 = 0.9922	164.5
353 K, 8000 kPa, Liquid, x2 = 0.351	1050
353 K, 9000 kPa, Gas, x2 = 0.9891	206
353 K, 9000 kPa, Liquid, x2 = 0.3881	1048.4
353 K, 10000 kPa, Gas, x2 = 0.9709	224.7
353 K, 10000 kPa, Liquid, x2 = 0.4112	1035.5
353 K, 11000 kPa, Gas, x2 = 0.9779	250
353 K, 11000 kPa, Liquid, x2 = 0.4485	997.5
353 K, 12000 kPa, Gas, x2 = 0.9719	300
353 K, 12000 kPa, Liquid, x2 = 0.492	970.4
353 K, 13000 kPa, Gas, x2 = 0.9842	320
353 K, 13000 kPa, Liquid, x2 = 0.5225	951.1
373 K, 3000 kPa, Gas, x2 = 0.9747	40
373 K, 3000 kPa, Liquid, x2 = 0.1384	1000
373 K, 4000 kPa, Gas, x2 = 0.9779	60.5
373 K, 4000 kPa, Liquid, x2 = 0.1638	1004.9
373 K, 5000 kPa, Gas, x2 = 0.98	82.7
373 K, 5000 kPa, Liquid, x2 = 0.2031	1005.4
373 K, 6000 kPa, Gas, x2 = 0.9802	95.9
373 K, 6000 kPa, Liquid, x2 = 0.2367	1011.5
373 K, 7000 kPa, Gas, x2 = 0.9784	125.9
373 K, 7000 kPa, Liquid, x2 = 0.2692	1000
373 K, 8000 kPa, Gas, x2 = 0.9795	149.8
373 K, 8000 kPa, Liquid, x2 = 0.2948	988.9
373 K, 9000 kPa, Gas, x2 = 0.9782	158
373 K, 9000 kPa, Liquid, x2 = 0.3268	980.9
373 K, 10000 kPa, Gas, x2 = 0.9847	181
373 K, 10000 kPa, Liquid, x2 = 0.3403	960.8
373 K, 11000 kPa, Gas, x2 = 0.9806	226.8
373 K, 11000 kPa, Liquid, x2 = 0.3805	940.7
373 K, 12000 kPa, Gas, x2 = 0.9848	241.7
373 K, 12000 kPa, Liquid, x2 = 0.39	935.1
373 K, 13000 kPa, Gas, x2 = 0.9844	264.9
373 K, 13000 kPa, Liquid, x2 = 0.4136	931.2

CCCC(=O)OCC [ethyl butanoate] + O=C=O
Conditions	mass density [kg/m3]
313 K, 2000 kPa, Gas, x2 = 0.9978	39.4
313 K, 2000 kPa, Liquid, x2 = 0.3795	919.1
313 K, 3000 kPa, Gas, x2 = 0.9926	61.3
313 K, 3000 kPa, Liquid, x2 = 0.4919	901
313 K, 4000 kPa, Gas, x2 = 0.9951	96.8
313 K, 4000 kPa, Liquid, x2 = 0.6053	867.6
313 K, 5000 kPa, Gas, x2 = 0.9938	141.2
313 K, 5000 kPa, Liquid, x2 = 0.7204	841.3
313 K, 6000 kPa, Gas, x2 = 0.9941	222.9
313 K, 6000 kPa, Liquid, x2 = 0.8124	813.8
313 K, 7000 kPa, Gas, x2 = 0.9888	300
313 K, 7000 kPa, Liquid, x2 = 0.8876	789.8
313 K, 8000 kPa, Gas, x2 = 0.9616	450
313 K, 8000 kPa, Liquid, x2 = 0.9495	744.8
333 K, 2000 kPa, Gas, x2 = 0.967	38.2
333 K, 2000 kPa, Liquid, x2 = 0.3088	801.5
333 K, 3000 kPa, Gas, x2 = 0.9751	57
333 K, 3000 kPa, Liquid, x2 = 0.3978	806.9
333 K, 4000 kPa, Gas, x2 = 0.9726	82.4
333 K, 4000 kPa, Liquid, x2 = 0.491	804.4
333 K, 5000 kPa, Gas, x2 = 0.9713	120.5
333 K, 5000 kPa, Liquid, x2 = 0.5707	786.8
333 K, 6000 kPa, Gas, x2 = 0.9709	164.2
333 K, 6000 kPa, Liquid, x2 = 0.6514	781.3
333 K, 7000 kPa, Gas, x2 = 0.9706	258.1
333 K, 7000 kPa, Liquid, x2 = 0.7285	752.2
333 K, 8000 kPa, Gas, x2 = 0.9716	298.4
333 K, 8000 kPa, Liquid, x2 = 0.8105	726.6
333 K, 9000 kPa, Gas, x2 = 0.9541	375.1
333 K, 9000 kPa, Liquid, x2 = 0.8711	692
333 K, 10000 kPa, Gas, x2 = 0.92	426.5
333 K, 10000 kPa, Liquid, x2 = 0.9039	670
353 K, 2000 kPa, Gas, x2 = 0.9121	34.5
353 K, 2000 kPa, Liquid, x2 = 0.2195	762.9
353 K, 3000 kPa, Gas, x2 = 0.9126	46.2
353 K, 3000 kPa, Liquid, x2 = 0.2919	764.7
353 K, 4000 kPa, Gas, x2 = 0.9151	68.5
353 K, 4000 kPa, Liquid, x2 = 0.356	765.8
353 K, 5000 kPa, Gas, x2 = 0.9166	106.5
353 K, 5000 kPa, Liquid, x2 = 0.4259	758.8
353 K, 6000 kPa, Gas, x2 = 0.9166	150.4
353 K, 6000 kPa, Liquid, x2 = 0.4863	753
353 K, 7000 kPa, Gas, x2 = 0.9189	215.9
353 K, 7000 kPa, Liquid, x2 = 0.5364	734.8
353 K, 8000 kPa, Gas, x2 = 0.9142	258
353 K, 8000 kPa, Liquid, x2 = 0.5983	719.6
353 K, 9000 kPa, Gas, x2 = 0.9127	308.3
353 K, 9000 kPa, Liquid, x2 = 0.6685	685.1
353 K, 10000 kPa, Gas, x2 = 0.91	331.7
353 K, 10000 kPa, Liquid, x2 = 0.7399	655.8
353 K, 11000 kPa, Gas, x2 = 0.89	375
353 K, 11000 kPa, Liquid, x2 = 0.8222	655.2
373 K, 2000 kPa, Gas, x2 = 0.867	30.6
373 K, 2000 kPa, Liquid, x2 = 0.18	627.3
373 K, 3000 kPa, Gas, x2 = 0.8751	45.1
373 K, 3000 kPa, Liquid, x2 = 0.2406	665.4
373 K, 4000 kPa, Gas, x2 = 0.8726	64.7
373 K, 4000 kPa, Liquid, x2 = 0.3086	675.5
373 K, 5000 kPa, Gas, x2 = 0.8713	96.5
373 K, 5000 kPa, Liquid, x2 = 0.3859	686.5
373 K, 6000 kPa, Gas, x2 = 0.8709	126.4
373 K, 6000 kPa, Liquid, x2 = 0.4129	675
373 K, 7000 kPa, Gas, x2 = 0.8706	171
373 K, 7000 kPa, Liquid, x2 = 0.4862	659.4
373 K, 8000 kPa, Gas, x2 = 0.8716	201.1
373 K, 8000 kPa, Liquid, x2 = 0.5222	647.4
373 K, 9000 kPa, Gas, x2 = 0.8766	233.2
373 K, 9000 kPa, Liquid, x2 = 0.5764	639.9
373 K, 10000 kPa, Gas, x2 = 0.856	259.8
373 K, 10000 kPa, Liquid, x2 = 0.6256	628.8

Source: the NIST ThermoML archive (doi:10.1021/je101086r)
